Assay results as given in patent US7396645B1, “Cholestasis signature” (priority 2002, dated 2008).
Like-named read-outs stand apart in the source and are kept apart here. Marks after values point to notes of the source that are not given here.

Experiments:
Cholestasis Signature = system: Cholestasis Signature
Method: (§1) After determination of the MTD and FED for a compound, each compound was dissolved in a vehicle for administration on day 1 of the study (additional daily doses were stored as frozen aliquots from this initial formulation). Each compound was administered to three individual male Sprague-Dawley rats for each of the two doses (MTD and FED) for one of four different times (0.25 day, 1 day, 3 days, and 5 days), yielding a total of up to 24 animals per compound study. Vehicle choice was based on solubility of the compound, effect of food on adsorption, and the vehicles used in the literature reports examined during the FED selection investigations, described above. Generally, the route and vehicle in which the FED was defined are used. When there was a choice of routes and vehicles, oral routes were chosen over injection routes. Many compounds, especially oncolytics, are only administerable intravenously. In such cases, the compound was administered as an intravenous formulation into the tail vein. Orally administered compounds were given dissolved in either water, 1% carboxymethycellulose (CMC) or corn oil. Intravenously and intraperitoneally administered compounds were given in 0.9% saline. Subcutaneously administered compounds were given in corn oil. Animal body weights were determined at 1 day and, where appropriate, at 4 days, before necropsy, and clinical observations were made on a daily basis. Control animals were dosed with vehicle only. Three male animals were used for each dose and time combination used for the compound treatment.
(§2) Tissue Harvest and Handling: After the allocated treatment time, the tissues from the animals were harvested. […] All the tissues collected were divided to provide samples for histopathological analyses, and the remainder of each tissue was then snap-frozen. […] The parameters were measured using a Hitachi-911 clinical chemistry analysis instrument according to the manufacturer's instructions. The following blood constituents were measured: Blood Urea Nitrogen (BUN), Creatinine (CRE), Glucose (GLU), Alanine Transaminase (ALT), Aspartate Aminotrans-ferase (AST), Alkaline Phosphatase (ALP), Total Bilirubin (TBI), Sodium (SOD), Potassium (POT), Chloride (CHL), Phosphorus (PHO), Total Protein (TPR), Albumin (ALB), Cholesterol (CHO), Creatine Phosphokinase (CPK), Lactate Dehydrogenase (LDH), Carbon Dioxide (CO2), Uric Acid (UA), and Lipase. […] The parameters were measured using a Baker 9000 blood cell analysis instrument according to the manufactures instructions. The following blood constituents were measured: Leukocyte count (WBC), Differential Leukocyte counts, Erythrocyte count (RBC), Hemoglobin concentration (HGB), Hematocrit (HCT), Mean Corpuscular Volume (MCV), Mean Corpuscular Hemoglobin (MCH), Mean Corpuscular Hemoglobin Concentration (MCC), Thrombocyte Count (PLC). Histopathology: Histopathological analyses of hematoxylin and eosin-stained tissue sections were performed and peer-reviewed by board-certified (Diplomate, American College of Veterinary Pathologists) veterinary pathologists. Preparation of Enriched mRNA: Punch Biopsies were Taken from the Frozen Tissues and were completely homogenized before being processed using the MagNA Pure robot. (Roche Diagnostics Corp., Indianapolis, Ind.) in combination with the MagNA Pure LC RNA Isolation kit II (Roche Diagnostics Corp). The amount of lysis buffer was adjusted to allow 1 ml per 50 mg for liver tissue, or 1 ml per 80 mg for all other tissues. After complete homogenization and before loading of the samples into the 32-well MagNA Pure plate, the samples were syringed 5-6 times using a 20-gauge 3-ml syringe to ensure a smooth solution for robotic processing. Tissue sample processing was performed in duplicate wells (loading 150 μl of homogenized sample and 150 μl of additional lysis buffer to each well) of the MagNA Pure LC, which is programmed to extract mRNA using oligo-dT selection technology into a final elution volume of 100 μl.

livers of rats = system: livers of rats
Method: as §1, §2

male Sprague-Dawley rats = conditions: rat
Source text: Compound dosing was based on the acute dose LD50s recorded in published reference or literature sources. […] The MTD (maximum tolerated dose) was then selected as the dose at which the animals […] 5-10% body weight during the 5-day range finding study. […] In addition, the clinical observations must show no or mild clinical signs during the whole of the range-finding study. At the next highest dose, signs and symptoms of adverse effects and exceeding those of the MTD should be seen to occur. Should these criteria not be met, the range-finding study is repeated using a modified dose range.
as §1
Tissue Harvest and Handling: After the allocated treatment time, the tissues from the animals were harvested. […] All the tissues collected were divided to provide samples for histopathological analyses, and the remainder of each tissue was then snap-frozen. […] The parameters were measured using a Hitachi-911 clinical chemistry analysis instrument according to the manufacturer's instructions. The following blood constituents were measured: Blood Urea Nitrogen (BUN), Creatinine (CRE), Glucose (GLU), Alanine Transaminase (ALT), Aspartate Aminotrans-ferase (AST), Alkaline Phosphatase (ALP), Total Bilirubin (TBI), Sodium (SOD), Potassium (POT), Chloride (CHL), Phosphorus (PHO), Total Protein (TPR), Albumin (ALB), Cholesterol (CHO), Creatine Phosphokinase (CPK), Lactate Dehydrogenase (LDH), Carbon Dioxide (CO2), Uric Acid (UA), and Lipase. […] The parameters were measured using a Baker 9000 blood cell analysis instrument according to the manufactures instructions. The following blood constituents were measured: Leukocyte count (WBC), Differential Leukocyte counts, Erythrocyte count (RBC), Hemoglobin concentration (HGB), Hematocrit (HCT), Mean Corpuscular Volume (MCV), Mean Corpuscular Hemoglobin (MCH), Mean Corpuscular Hemoglobin Concentration (MCC), Thrombocyte Count (PLC). Histopathology: Histopathological analyses of hematoxylin and eosin-stained tissue sections were performed and peer-reviewed by board-certified (Diplomate, American College of Veterinary Pathologists) veterinary pathologists.

[1] = rat liver expression data vs Cholestasis Signature, maximum score of training treatments normalised to 100, dose and time not given
[2] = 81 mg/kg orally in corn oil, 5 days, vs vehicle control, average of 3 animals

Row | SMILES | Sequence Projection Score (SPS) (Cholestasis Signature; rat, in vivo) | further results
1 | Cc1cnc(NC(=O)C2=C(O)c3ccccc3S(=O)(=O)N2C)s1 [MELOXICAM] | 31* | –
2 | Nc1ccc(Cc2ccc(N)cc2)cc1 [4,4′-DIAMINODIPHENYLMETHANE, 4,4′-diaminodiphenylmethane] | – | bile duct hyperplasia (livers of rats; rat liver histopathology, training-set treatments, in most animals): moderate; Sequence Projection Score (SPS) (Cholestasis Signature; [1]): 77**; Fold change in serum alkaline phosphatase (male Sprague-Dawley rats; [2]): 1.6 fold; Fold change in serum alkaline phosphatase and total bilirubin (male Sprague-Dawley rats; [2]): 7.7 fold; Fold change in serum total bilirubin (male Sprague-Dawley rats; [2]): 4.9 fold
3 | Clc1ccccc1C(c1ccccc1)(c1ccccc1)n1ccnc1 [CLOTRIMAZOLE, 1-(o-chloro-α,α-diphenylbenzyl)imidazole] | 33* | nuclear/cytoplasmic condensation (apoptosis) and/or necrosis in liver (livers of rats; rat, in vivo): mild to moderate; steatosis (livers of rats; rat, in vivo): moderate to very severe; raised serum levels of ALP and TBI compared with vehicle-treated control animals (male Sprague-Dawley rats; in vivo, po): at least 2 fold; Fold change in serum alkaline phosphatase (male Sprague-Dawley rats; in vivo, po, 178 mg/kg): 1.4 fold; Fold change in serum alkaline phosphatase and total bilirubin (male Sprague-Dawley rats; in vivo, po, 178 mg/kg): 2.9 fold; Fold change in serum total bilirubin (male Sprague-Dawley rats; in vivo, po, 178 mg/kg): 2.0 fold
4 | O=C(O)Cc1ccccc1Nc1c(Cl)cccc1Cl [DICLOFENAC] | 41* | –
5 | Clc1ccc(COC(Cn2ccnc2)c2ccc(Cl)cc2Cl)c(Cl)c1 (stereo not drawn) [MICONAZOLE, 1-[2,4-dichloro-β-(2,4-dichlorobenzyloxy)phenethyl]imidazole nitrate] | – | increased hepatocyte enlargement and increased eosinophilic granular cytoplasm (livers of rats; rat liver histopathology, training-set treatments): mild to severe; Sequence Projection Score (SPS) (Cholestasis Signature; [1]): 100**
6 | C[C@@H]1C[C@H]2[C@@H]3CCC4=CC(=O)C=C[C@]4(C)[C@@]3(F)[C@@H](O)C[C@]2(C)[C@@]1(O)C(=O)CO [DEXAMETHASONE] | 32* | –
7 | C#C[C@]1(O)CC[C@H]2[C@@H]3CCc4cc(O)ccc4[C@H]3CC[C@@]21C [ETHINYLESTRADIOL] | 61* | –
8 | CC#C[C@]1(O)CC[C@H]2[C@@H]3CCC4=CC(=O)CCC4=C3[C@@H](c3ccc(N(C)C)cc3)C[C@@]21C [MIFEPRISTONE] | 39* | –
9 | COCc1c(C(C)C)nc(C(C)C)c(/C=C/[C@@H](O)C[C@@H](O)CC(=O)O)c1-c1ccc(F)cc1 [CERIVASTATIN] | 36* | –
10 | CC(C)OC(=O)C(C)(C)Oc1ccc(C(=O)c2ccc(Cl)cc2)cc1 [FENOFIBRATE] | 43* | –
11 | Nc1nc2nc[nH]c2c(=S)[nH]1 [THIOGUANINE] | 19 | –
12 | CC1=C(CC(=O)O)c2cc(F)ccc2/C1=C\c1ccc([S+](C)[O-])cc1 (stereo not shown) | 45* | –
13 | C[C@]12CC[C@@H]3c4ccc(O)cc4CC[C@H]3[C@@H]1CC[C@@H]2O [BETA ESTRADIOL] | 26* | –
14 | CCC(C)n1ncn(-c2ccc(N3CCN(c4ccc(OCC5COC(Cn6cncn6)(c6ccc(Cl)cc6Cl)O5)cc4)CC3)cc2)c1=O (stereo not shown) [ITRACONAZOLE] | 17 | –
15 | CS(=O)(=O)Nc1ccc([N+](=O)[O-])cc1Oc1ccccc1 [NIMESULIDE] | 38* | –
16 | CCO [ETHANOL] | – | steatosis (livers of rats; rat, in vivo): moderate to very severe; raised serum levels of ALP and TBI compared with vehicle-treated control animals (male Sprague-Dawley rats; in vivo, po): at least 2 fold; Fold change in serum alkaline phosphatase (male Sprague-Dawley rats; in vivo, po, 3000 mg/kg): 1.5 fold; Fold change in serum alkaline phosphatase and total bilirubin (male Sprague-Dawley rats; in vivo, po, 3000 mg/kg): 3.1 fold; Fold change in serum total bilirubin (male Sprague-Dawley rats; in vivo, po, 3000 mg/kg): 2.0 fold
17 | CS(=O)(=O)c1ccc(C2=C(c3ccccc3)C(=O)OC2)cc1 [ROFECOXIB] | 27* | –
18 | ClC(Cl)(Cl)Cl [CARBON TETRACHLORIDE] | – | Sequence Projection Score (SPS) (Cholestasis Signature; [1]): 50*

Row | SMILES | Sequence Projection Score (SPS) (Cholestasis Signature; rat, in vivo) | further results
19 | CC(C)Cc1ccc(C(C)C(=O)O)cc1 (stereo not shown) [IBUPROFEN] | 33* | –
20 | COc1ccc2c(c1)c(CC(=O)O)c(C)n2C(=O)c1ccc(Cl)cc1 [INDOMETHACIN] | 52* | –
21 | OC(Cn1cncn1)(Cn1cncn1)c1ccc(F)cc1F [FLUCONAZOLE] | 63* | –
22 | CCCCCCCCc1ccc(O)cc1 [4-OCTYLPHENOL] | – | Sequence Projection Score (SPS) (Cholestasis Signature; [1]): 22
23 | CC[C@H](C)C(=O)O[C@H]1C[C@@H](C)C=C2C=C[C@H](C)[C@H](CC[C@@H]3C[C@@H](O)CC(=O)O3)[C@H]21 [LOVASTATIN] | 37* | –
24 | CC(=O)N1CCN(c2ccc(OCC3COC(Cn4ccnc4)(c4ccc(Cl)cc4Cl)O3)cc2)CC1 (stereo not shown) [KETOCONAZOLE] | 21 | –
25 | COc1ccc2cc([C@H](C)C(=O)O)ccc2c1 [NAPROXEN] | 48* | –
26 | C[C@]12CC[C@@H]3c4ccc(O)cc4CC[C@H]3[C@@H]1C[C@@H](O)[C@@H]2O [ESTRIOL] | 27* | –
27 | CC(C)c1c(C(=O)Nc2ccccc2)c(-c2ccccc2)c(-c2ccc(F)cc2)n1CC[C@@H](O)C[C@@H](O)CC(=O)O (relative stereo) [ATORVASTATIN, (R—(R*,R*))-2-(4-fluorophenyl)-β,δ-dihydroxy-5-(1-methylethyl)-3-phenyl-4-((phenylamino)carbonyl)-1H-pyrrole-1-heptanoic acid] | 62* | raised serum levels of ALP and TBI compared with vehicle-treated control animals (male Sprague-Dawley rats; in vivo, po): at least 2 fold
28 | CC(C)(Oc1ccc(CCNC(=O)c2ccc(Cl)cc2)cc1)C(=O)O [BEZAFIBRATE] | 42* | –
29 | Oc1c(Cl)cc(Cl)cc1Sc1cc(Cl)cc(Cl)c1O [BITHIONOL] | 23* | –
30 | C[C@]12CCC(=O)C=C1CC[C@@H]1[C@@H]2CC[C@@]2(C)[C@H]1CC[C@]2(C)O [17-METHYLTESTOSTERONE] | – | Sequence Projection Score (SPS) (Cholestasis Signature; [1]): 36*
31 | CN(Cc1cnc2nc(N)nc(N)c2n1)c1ccc(C(=O)N[C@@H](CCC(=O)O)C(=O)O)cc1 [METHOTREXATE] | 17 | –
32 | CN(C)C=O [N,N-DIMETHYLFORMAMIDE] | – | Sequence Projection Score (SPS) (Cholestasis Signature; [1]): 27*
33 | S=C=Nc1cccc2ccccc12 [1-NAPHTHYL ISOTHIOCYANATE, 1-naphthyl isothiocyanate] | – | Sequence Projection Score (SPS) (Cholestasis Signature; [1]): 90**
34 | C#C[C@]1(OC(C)=O)CC[C@H]2[C@@H]3CCC4=CC(=O)CC[C@@H]4[C@H]3CC[C@@]21C [NORETHINDRONE ACETATE] | 23* | –
35 | CC(C)n1c(/C=C/C(O)CC(O)CC(=O)O)c(-c2ccc(F)cc2)c2ccccc21 (stereo not shown) [FLUVASTATIN] | 67* | –
36 | CCOC(=O)C(C)(C)Oc1ccc(Cl)cc1 [CLOFIBRATE] | 22 | –
